Consider five compounds from PMC4595834, “Comparison of carbon-sulfur and carbon-amine bond in therapeutic drug: 4β-S-aromatic heterocyclic podophyllum derivatives display antitumor activity” (Scientific Reports, 2015).

The target of one data set is T1, Topoisomerase II (Homo sapiens, UniProt P11388).
T1 construct: purchased TopoGEN Inc., USA 2000H
Briefly: kDNA decatenation assay (Topoisomerase II inhibition). The data set is classed as biochemical. To be noted: 100 μM. The method, then:
Kinetoplast DNA (kDNA) is a catenated network of mitochondrial DNA seen in trypanosomes.
Topoisomerase II activity was determined using kit (TopoGEN Inc., USA, Cat no. 2000H). […] Next, 4 U of topoisomerase II was added and the reaction was allowed to proceed for 60 min at 37 °C. The reaction was stopped by the addition of 1/10 volume of 1 mg/mL proteinase K and incubated for 15 min at 37 °C. The reaction was quenched via the addition of loading buffer (350 mM Tris, pH 6.8, 12% SDS, 0.012% bromophenol blue, 47% glycerol) and was then analyzed by electrophoresis on a 1% agarose gel in TBE buffer (89 mM Tris, 89 mM borate, and 2 mM Na-EDTA, pH 8.3) for 0.5 h at 140 V. The gel was visualized under UV illumination and photographed on an Alpha Imager.

The test system of another data set is BGC-823 cells. Kind of data set: MTT cytotoxicity assay, BGC-823. The data set is classed as cell-based, human. To be noted: for IC50: Homo sapiens, BGC-823, MTT, drug exposure 48 h, mean ± SD (n = 3), read-out: Cytotoxic activity (IC50) BGC-823. The method, then:
(§1) Cytotoxicity of the podophyllum derivatives were determined by reading the absorbance at 492 nm on a multiplate reader (Thermo Fisher Scientific, Multiskan MK3). Cell cycle analysis and apoptosis analysis were analyzed by flow cytometry (Accuri C6, BD). Immunofluorescence images were recorded using laser scanning microscope (Perkin-Elmer & Olympus, UltraView VoX & Ix81). The gel for the decatenation of kDNA by Topoisomerase II study was photographed with UV illumination, Tanon 1600 (Tanon Science & Technology Co., Ltd., Shanghai). The nitrocellulose blotting membrane for western blot analysis was visualized using X-ray film processor and X-ray film, Fujifilm SUPER RX-N-C.
(§2) Cytotoxicity assay was performed on human lung adenocarcinoma epithelial cell line (A549), henrietta lacks strain of cancer cells (HeLa), human gastric carcinoma cell line (BGC 823), and normal human hepatocyte cell line (HL-7702). Cells (3500–13,000) in a 100 μL culture medium per well were seeded into 96-well microtest plates (Falcon, CA). A549 cell lines, HeLa cell lines and HL-7702 cell lines were cultured in DMEM supplemented with 10% CS, 100 mg/L penicillin G, 100 mg/L streptomycin. BGC 823 cell lines were cultured in RPMI medium 1640 supplemented with 10% CS, 100 mg/L penicillin G, and 100 mg/L streptomycin. The cells were incubated at 37 °C, in a humidified atmosphere with 5% CO2 for 48 h. For all cell lines, the microculture tetrazolium [3-(4, 5-dimethylthiazol-2-yl)-2, 5-diphenyltetrazolium bromide, MTT; Sigma, St. Louis, MO] assay was performed to measure the cytotoxic effects. Drug stock solutions (the each drug concentration was 0.5, 1, 10, 20, 50, 100, 200, and 500 μM, respectively) were prepared in DMSO and the final solvent concentration was ≤ 2% DMSO (v/v), a concentration without effect on cell replication. Initial seeding densities varied among the cell lines to ensure a final absorbance reading in control (untreated) cultures in the range 0.6–0.8 A492 units. Drug exposure was for 2 days, and the IC50 value, the drug concentration that reduced the absorbance by 50%, was interpolated from dose-response data. Each test was performed in triplicate, and absorbance readings varied no more than 5%. Data presented as means ± standard deviation (SD). Statistical analyses were performed by the analysis of variance (ANOVA). All statistical analyses were performed using Origin version 8.0 ([…], OriginLab Corp., Northampton, MA, USA). Sigmoidal dose responses and non-linear regression analyses were undertaken to identify half-maximal concentrations for each of the drugs. To evaluate differences in IC50 concentrations, analysis of variance combined with Tukey’s multiple range test was used.
(In general: Formazan colour is commonly taken as a measure of viable cells.)

The next data set has as its system A549 cells. Kind of data set: MTT cytotoxicity assay, A549. The data set is classed as cell-based, human. To be noted: for IC50: Homo sapiens, A549, 48 h, MTT, drug exposure 48 h, mean ± SD (n = 3), read-out: Cytotoxic activity (IC50) A549. On the procedure: as §1, §2
Data set [1] relates to HeLa cells. Briefly: MTT cytotoxicity assay, HeLa. The data set is classed as cell-based, human. To be noted: for IC50: Homo sapiens, HeLa, MTT, drug exposure 48 h, mean ± SD (n = 3), read-out: Cytotoxic activity (IC50) HeLa; for IC50 fold difference vs the corresponding C-NH compound (1N or 1′N): HeLa cells. The method, then: as §1, §2
In data set [2] the test system is HeLa cells. Kind of data set: Flow cytometry cell cycle analysis in HeLa cells. The data set is classed as cell-based, human. To be noted: for G2/M phase arrest: 0.1 μM; for percentage of G2/M phase cells: 1 μM; for percentage of G2/M phase cells / percentage of G2/M phase cells (maximum): 48 h; for percentage of G2/M phase cells (maximum): 5 μM. On the procedure: (§3) For the cell cycle analysis, HeLa cells were treated with test compounds for 6, 12, 24 and 48 h at 37 °C in 6-well plates. Appropriate controls, in which cells were mock-treated by DMSO (<1%) for the same durations, were also set up. After being treated, all cells were trypsinized and collected, washed twice with PBS, added with 4 °C 70% ethanol (10 mL) and stored overnight at 4 °C. After this, cells were spun down at 1500 rpm for 5 min, washed once with PBS, and then treated with the mixture of 10 μL RNase (10 mg/mL), 50 μL propidium iodide (1 mg/mL) and 940 μL 1 × PBS, incubated at room temperature for 30 min in the dark. The stained cells were analyzed by flow cytometry. The result was analyzed with ModFit LT^TM 3.2 version software. For the apoptosis determination, after 6, 12, 24 and 48 h treatment with test compounds, HeLa cells were harvested, re-suspend in 500 μL annexin-binding buffer (10mM HEPES, 140 mM NaCl, 2.5 mM CaCl2, pH 7.4) at the cell density of about 10^6 cells/mL and stained with 5 μL annexin V and 5 μL propidium iodide for 15 min at room temperature. Changes in intracellular ROS levels were determined by measuring the oxidative conversion of cell permeable 2′,7′-dichlorofluorescein diacetate (DCFH-DA) to fluorescent di-chlorofluorescein (DCF) in flow cytometry (BD Accuri C6). Cells in 6-well culture dishes were incubated with DMEM for 6, 12, 24 and 48 h in the absence or presence of test compounds. The cells were washed with DMEM and incubated with DCFH-DA (10 μM) at 37 °C for 30 min. Then DCF fluorescence of 10,000 cells was detected by flow cytometry.

Data set [3] deals with HeLa cells. Kind of data set: Flow cytometry ROS (DCFH-DA) in HeLa cells. The data set is classed as cell-based, human. To be noted: for fluorescence intensity of ROS: 10 μM. The method, then:
as §3
(In flow cytometry, cells or beads pass a laser one at a time.)

The nature of data set [4]: MTT cytotoxicity assay, normal hepatocyte HL-7702. To be noted: HL-7702 cells (normal hepatocyte cell line), normal human hepatocyte cell line, drug exposure 48 h, mean ± SD (n = 3), read-out: Cytotoxic activity (IC50) HL-7702. The data set is classed as cell-based. On the procedure: as §1, §2
In data set [5] the test system is HeLa cells. Briefly: Western blot of apoptosis pathway proteins in HeLa cells. The data set is classed as cell-based, human. To be noted: 1 μM; for apoptotic pathways activated (BimEL, caspase-9, -8, -3, PARP): 12–48 h; for activation of ATM, ATR, caspase-8, 9 and 3: 0-48 h. On the procedure:
Cells were lysed by adding 100 μL of RIPA buffer (50 mM Tris, pH 8.0, 150 mM NaCl, 1% TX-100, 0.5% sodium deoxycholate, 0.1% SDS) with 1% Protease Inhibitor PMSF. Each sample was then vigorously vortexed twice for 15 seconds, with a 30-minute incubation on ice following each agitation. The cellular debris was pelleted (12,000 rpm, 10 min), and then 100 μL of the protein suspension was transferred to fresh 0.5 mL tubes. The protein levels were quantified using a standard BCA (Thermo Scientific), after which the samples were diluted with deionized water to achieve equal protein concentrations for all samples. Prior to analyzing the samples, 5 × Loading buffer (350 mM Tris, pH 6.8, 12% SDS, 0.012% bromophenol blue, 47% glycerol) with 5% β-mercaptoethanol was added to each sample to achieve a final 1 × concentration, after which the samples were incubated at 95 °C for 10 minutes to denature the protein samples. 20–30 μg of protein was added to and run on a 15-well 4–20% Tris-HCl gel. The gel was equilibrated buffer (39 mM glycine, 48 mM, 0.037 g/L SDS, 200 mL/L methanol) for 5 minutes, then the protein were transferred to a PVDF membrane, which was incubated with 5% fetal bovine serum in TBST (20 mM Tris-HCl, pH 8.0, 150 mM, 0.5 mL/L Tween-20) for 1 h to block non-specific binding, and then probed for the primary antibody at a 1:1000 dilution with a blocking agent in TBST for 1 h at room temperature. The blot was washed with TBST, and then probed with a secondary antibody in TBST for 1 hour at room temperature. The blot was washed with TBST, and then The ECL detection kit (Millipore) was added to catalyze oxidation of luminol to emit chemiluminescence, and the membrane was visualized using X-ray film processor and X-ray film (Fujifilm SUPER RX-N-C).
A general note: In western blotting, separated proteins are transferred to a membrane and probed.

Setting [6] is: before the 48 h change (24 h induction).

T1 sequence (P11388 whole entry): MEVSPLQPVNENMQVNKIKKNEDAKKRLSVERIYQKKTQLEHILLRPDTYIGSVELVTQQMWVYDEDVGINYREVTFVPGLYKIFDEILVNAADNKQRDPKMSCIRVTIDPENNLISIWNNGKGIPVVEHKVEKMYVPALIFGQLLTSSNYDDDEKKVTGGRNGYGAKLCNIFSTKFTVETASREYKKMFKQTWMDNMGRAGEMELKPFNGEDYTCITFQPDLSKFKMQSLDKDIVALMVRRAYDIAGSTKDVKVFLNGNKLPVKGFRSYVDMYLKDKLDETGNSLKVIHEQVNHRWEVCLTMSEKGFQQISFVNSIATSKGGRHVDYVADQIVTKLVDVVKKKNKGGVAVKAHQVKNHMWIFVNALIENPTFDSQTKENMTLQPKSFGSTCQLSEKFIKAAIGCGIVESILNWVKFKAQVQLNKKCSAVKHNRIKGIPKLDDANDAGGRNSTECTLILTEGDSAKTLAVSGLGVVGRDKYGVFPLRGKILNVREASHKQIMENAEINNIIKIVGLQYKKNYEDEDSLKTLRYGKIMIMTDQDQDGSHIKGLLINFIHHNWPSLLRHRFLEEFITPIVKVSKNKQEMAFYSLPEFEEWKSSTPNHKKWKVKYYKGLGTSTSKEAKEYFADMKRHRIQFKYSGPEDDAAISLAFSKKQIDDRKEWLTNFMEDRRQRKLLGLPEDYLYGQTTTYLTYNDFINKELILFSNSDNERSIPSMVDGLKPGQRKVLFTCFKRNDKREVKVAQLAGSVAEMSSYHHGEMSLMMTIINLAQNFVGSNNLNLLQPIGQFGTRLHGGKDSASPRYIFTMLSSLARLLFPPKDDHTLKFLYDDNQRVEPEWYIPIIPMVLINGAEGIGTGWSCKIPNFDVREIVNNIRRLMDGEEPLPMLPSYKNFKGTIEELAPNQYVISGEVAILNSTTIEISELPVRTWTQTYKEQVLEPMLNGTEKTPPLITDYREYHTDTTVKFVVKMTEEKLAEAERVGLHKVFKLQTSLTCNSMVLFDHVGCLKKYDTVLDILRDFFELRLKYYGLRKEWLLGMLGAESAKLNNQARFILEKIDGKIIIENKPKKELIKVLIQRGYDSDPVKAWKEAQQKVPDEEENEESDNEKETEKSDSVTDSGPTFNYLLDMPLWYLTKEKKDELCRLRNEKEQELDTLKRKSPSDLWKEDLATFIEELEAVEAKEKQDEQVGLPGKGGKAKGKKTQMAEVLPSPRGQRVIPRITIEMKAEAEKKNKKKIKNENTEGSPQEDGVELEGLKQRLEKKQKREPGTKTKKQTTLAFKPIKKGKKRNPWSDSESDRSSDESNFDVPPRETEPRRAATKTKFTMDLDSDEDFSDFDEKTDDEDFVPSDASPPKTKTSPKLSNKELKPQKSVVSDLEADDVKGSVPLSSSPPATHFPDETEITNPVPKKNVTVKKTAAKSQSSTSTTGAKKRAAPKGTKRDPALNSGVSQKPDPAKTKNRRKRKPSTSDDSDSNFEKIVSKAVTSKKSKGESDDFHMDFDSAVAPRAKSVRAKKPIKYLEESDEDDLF

As to `COc1cc([C@@H]2c3cc4c(cc3[C@@H](Sc3ccccn3)[C@H]3COC(=O)[C@H]23)OCO4)cc(OC)c1O` [3′S, 4β-S-(pyridine-2)-4-deoxy-4′-demethyl-podophyllotoxin], the “inhibition of catalytic activity of Topo II (kDNA decatenation)” value at Topoisomerase II is given as “nearly inhibited”. Besides, the IC50 (in general, the concentration needed to halve the response being measured) in the data set on BGC-823 cells worked out at 10.3 ± 0.34 µM; with A549 cells, 3.85 ± 0.35 µM; in the data set on HeLa cells [1], 5.6 ± 0.39 µM.
As for `COc1cc([C@@H]2c3cc4c(cc3[C@@H](Nc3nc[nH]n3)[C@H]3COC(=O)[C@H]23)OCO4)cc(OC)c1OC` [Compound 1N, 4β-NH-(1,2,4-trizole-3)-4-deoxy-podophyllotoxin], the IC50 with BGC-823 cells came to 1.25 ± 0.13 µM; in the data set with A549 cells, 5.33 ± 0.52 µM; in the data set on HeLa cells [1], 3.85 ± 0.21 µM. In addition, the G2/M phase arrest result with HeLa cells [2] is “did not induce the G2/M phase arrest”. Further, the “percentage of G2/M phase cells” value in the data set on HeLa cells [2] is “about 80%”. Further, the “percentage of G2/M phase cells (maximum)” value in the data set with HeLa cells [2] is on record as 80-90%. For the same compound, the “fluorescence intensity of ROS” value in the data set on HeLa cells [3] (48 h induction, half (1S) or most (1N) of the cells) was 10^4–10^5; in the data set on HeLa cells [3] (setting [6]) it was 10^5–10^6. For the same compound, the IC50 at 48 h in data set [4] stood at 21.2 ± 2.16 µM. In addition, the “apoptotic pathways activated (BimEL, caspase-9, -8, -3, PARP)” value in the data set on HeLa cells [5] is given as “only stimulated the mitochondrial apoptotic pathway”.
For `COc1cc([C@@H]2c3cc4c(cc3[C@@H](Sc3nc[nH]n3)[C@H]3COC(=O)[C@H]23)OCO4)cc(OC)c1OC` [Compound 1S, 4β-S-(1,3,4-trizole-2)-4-deoxy-podophyllotoxin], in the data set with BGC-823 cells (BGC-823 cells), the “IC50 fold difference vs Compound 1N” value is roughly 3 times. The IC50 in the data set with BGC-823 cells was 0.34 ± 0.02 µM. Moreover, in the data set on HeLa cells [2], the G2/M phase arrest entry is listed as “did not induce the G2/M phase arrest”, the “percentage of G2/M phase cells” value was “about 80%” and the “percentage of G2/M phase cells (maximum)” value was 80-90%. Also, in the data set on HeLa cells [3] (setting [6]), the “fluorescence intensity of ROS” value is 10^5–10^6. The “amount of ROS (fluorescence intensity × count of cells) improved compared with Compound 1N” value in the data set with HeLa cells [3] (48 h) was 4.8 times. In data set [4], the 50% inhibitory concentration (IC50) at 48 h is 56.1 ± 3.54 µM. Moreover, in the data set on HeLa cells [5], the “apoptotic pathways activated (BimEL, caspase-9, -8, -3, PARP)” value was “activated the mitochondrial and the death receptor apoptotic pathways”. In the data set on A549 cells (A549 cells), the “IC50 fold difference vs Compound 1N” value is recorded as roughly 6 times. Besides, in the data set on HeLa cells [1], the “IC50 fold difference vs the corresponding C-NH compound (1N or 1′N)” value is “about 29 times” and the IC50 is 0.17 ± 0.02 µM.
In the case of `COc1cc([C@@H]2c3cc4c(cc3[C@@H](Nc3nc[nH]n3)[C@H]3COC(=O)[C@H]23)OCO4)cc(OC)c1O` [Compound 1′N, 4β-NH-(1,2,4-trizole-3)-4-deoxy-4′-demethyl-podophyllotoxin], the IC50 in the data set with BGC-823 cells is 15.6 ± 0.41 µM; with A549 cells, 4.22 ± 0.43 µM; in the data set on HeLa cells [1], 4.36 ± 0.42 µM. Besides, in data set [4], the IC50 at 48 h came out at 38.6 ± 2.52 µM. For the same compound, the “activation of ATM, ATR, caspase-8, 9 and 3” value with HeLa cells [5] is listed as “significantly weaker signal”.
Regarding `COc1cc([C@@H]2c3cc4c(cc3[C@@H](Sc3nc[nH]n3)[C@H]3COC(=O)[C@H]23)OCO4)cc(OC)c1O` [Compound 1′S, 4β-S-(1,3,4-trizole-2)-4-deoxy-4′-demethylepipodophyllotoxin], the “inhibition of catalytic activity of Topo II (kDNA decatenation)” value on Topoisomerase II is “nearly inhibited”. In addition, the half-maximal inhibitory concentration (IC50) turned out to be 8.38 ± 0.53 µM with BGC-823 cells, 3.85 ± 0.38 µM in the data set with A549 cells and 0.32 ± 0.03 µM with HeLa cells [1]. Also, the IC50 at 48 h in data set [4] is 43.2 ± 1.66 µM. Besides, the “activation of ATM, ATR, caspase-8, 9 and 3” value with HeLa cells [5] was “activation of all these proteins”. Also, the “IC50 fold difference vs the corresponding C-NH compound (1N or 1′N)” value with HeLa cells [1] came out at 16 times.
